*1 amine or outer side, *2 acyl side, *3 side chain or, on linkers, in order; H or OH if unused. Where a SMILES comes first, the peptide text is derived from it. [ ]: non-standard residue; d: D form. Trp(βS-Me,4-F) = C[C@@H](c1c[nH]c2cccc(F)c12)[C@H](N)C(=O)O; Bip(4'-COOH) = N[C@@H](Cc1ccc(-c2ccc(C(=O)O)cc2)cc1)C(=O)O; X1 = CC(=O)N1CCN(c2ccc(C[C@H](N[*:1])C(=O)[*:2])cn2)CC1; 1Nal(3S-Me) = C[C@@H](c1cccc2ccccc12)[C@H](N)C(=O)O; Trp(6-Cl) = N[C@@H](Cc1c[nH]c2cc(Cl)ccc12)C(=O)O; Phe(4-COOH) = N[C@@H](Cc1ccc(C(=O)O)cc1)C(=O)O; h3Pal(5-CN) = N#Cc1cncc(CC[C@H](N)C(=O)O)c1; Pro(4R-NH2) = N[C@H]1CN[C@H](C(=O)O)C1; AEF = NCCOc1ccc(C[C@H](N)C(=O)O)cc1; hTyr = N[C@@H](CCc1ccc(O)cc1)C(=O)O; hCha = N[C@@H](CCC1CCCCC1)C(=O)O; tBuAla = CC(C)(C)C[C@H](N)C(=O)O; Aad = N[C@@H](CCCC(=O)O)C(=O)O; dNle = CCCC[C@@H](N)C(=O)O; dNva = CCC[C@@H](N)C(=O)O; Orn = NCCC[C@H](N)C(=O)O; dNMeA = CN[C@H](C)C(=O)O; Dab = NCC[C@H](N)C(=O)O; Dap = NC[C@H](N)C(=O)O

T1 sequence (P01584 117-269): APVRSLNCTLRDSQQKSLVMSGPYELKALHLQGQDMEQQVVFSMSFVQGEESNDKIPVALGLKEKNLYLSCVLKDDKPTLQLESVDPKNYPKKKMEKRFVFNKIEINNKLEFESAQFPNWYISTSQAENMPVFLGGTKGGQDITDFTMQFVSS

The experiment concerns the target T1, Recombinant human IL-1β (Homo sapiens, UniProt P01584).
T1 construct: purchased BioLegend 579404
Description: IL-6 assay in MRC5 cells: inhibition of IL-1β induced IL-6 secretion (AlphaLISA). It counts as cell-based. The note with it: inhibition of IL-1β induced IL-6 secretion in MRC5 cells; read-out: MRC5 IC50. The method in brief:
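IL-1β at 2×EC80 in seeding medium (EMEM, 0.025% BSA) preincubated 1 h at ambient temperature with compound, then 3000 MRC5 cells/well added and incubated overnight at 37 °C, 5% CO2. IL-6 in conditioned medium quantified by AlphaLISA; IC50 from 4-parameter logistic fit.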
A general note: Bead proximity is the source of the signal in Alpha formats.
For `CC(=O)NCCOc1ccc(C[C@@H]2NC(=O)[C@H](CCc3ccc(O)cc3)NC(=O)[C@@H](CO)NC(=O)[C@H](CC(C)C)NC(=O)[C@H](Cc3c[nH]c4ccccc34)NC(=O)[C@H](Cc3ccc(-c4ccc(C(=O)O)cc4)cc3)NC(=O)CNC(=O)[C@@H](C)N(C)C(=O)[C@H](CC(=O)O)NC(=O)[C@H]([C@@H](C)c3c[nH]c4cccc(F)c34)NC(=O)[C@@H]3C[C@@H](N)CN3C(=O)CNC(=O)[C@H](Cc3ccc(C(=O)O)cc3)NC(=O)[C@H](Cc3c[nH]c4ccccc34)NC2=O)cc1` [Example 171] (cyclo([AEF](Ac)W[Phe(4-COOH)]G[Pro(4R-NH2)][Trp(βS-Me,4-F)]D[dNMeA]G[Bip(4'-COOH)]WL[dS][hTyr])), the half-inhibitory concentration (IC50) (as a rule, the concentration at which inhibition is half-maximal) was 0.145 nM.
In the case of `CC(=O)NCCOc1ccc(C[C@@H]2NC(=O)[C@H](CCc3ccc(O)cc3)NC(=O)[C@@H](C)NC(=O)[C@H](CO)NC(=O)[C@H](Cc3c[nH]c4ccccc34)NC(=O)[C@H](Cc3ccc(-c4ccc(C(=O)O)cc4)cc3)NC(=O)CNC(=O)[C@@H](C)N(C)C(=O)[C@H](CC(=O)O)NC(=O)[C@H]([C@@H](C)c3c[nH]c4cccc(F)c34)NC(=O)[C@@H]3C[C@@H](N)CN3C(=O)CNC(=O)[C@H](Cc3ccc(C(=O)O)cc3)NC(=O)[C@H](Cc3c[nH]c4ccccc34)NC2=O)cc1` [Example 172] (cyclo([AEF](Ac)W[Phe(4-COOH)]G[Pro(4R-NH2)][Trp(βS-Me,4-F)]D[dNMeA]G[Bip(4'-COOH)]WS[dA][hTyr])) it was 0.246 nM; in that of `CC(=O)NCCOc1ccc(C[C@@H]2NC(=O)[C@H](Cc3ccc(OCCNC(C)=O)cc3)NC(=O)[C@@H](C)NC(=O)[C@H](CO)NC(=O)[C@H](Cc3c[nH]c4ccccc34)NC(=O)[C@H](Cc3ccc(-c4ccc(C(=O)O)cc4)cc3)NC(=O)CNC(=O)[C@@H](C)N(C)C(=O)[C@H](CC(=O)O)NC(=O)[C@H]([C@@H](C)c3c[nH]c4cccc(F)c34)NC(=O)[C@@H]3C[C@@H](N)CN3C(=O)CNC(=O)[C@H](Cc3ccc(C(=O)O)cc3)NC(=O)[C@H](Cc3c[nH]c4ccccc34)NC2=O)cc1` [Example 173] (cyclo([AEF](Ac)W[Phe(4-COOH)]G[Pro(4R-NH2)][Trp(βS-Me,4-F)]D[dNMeA]G[Bip(4'-COOH)]WS[dA][AEF](Ac))), 0.959 nM; in that of `CC(=O)N1CCN(c2ccc(C[C@@H]3NC(=O)[C@H](CCC4CCCCC4)NC(=O)[C@@H](C)NC(=O)[C@H](CC(C)C)NC(=O)[C@H](CCN)NC(=O)[C@H](Cc4ccc(-c5ccc(C(=O)O)cc5)cc4)NC(=O)CNC(=O)[C@@H](C)N(C)C(=O)[C@H](CC(=O)O)NC(=O)[C@H]([C@@H](C)c4cccc5ccccc45)NC(=O)[C@@H]4C[C@@H](N)CN4C(=O)CNC(=O)[C@H](Cc4ccc(C(=O)O)cc4)NC(=O)[C@H](Cc4c[nH]c5ccccc45)NC3=O)cn2)CC1` [Example 174] (cyclo([X1]W[Phe(4-COOH)]G[Pro(4R-NH2)][1Nal(3S-Me)]D[dNMeA]G[Bip(4'-COOH)][Dab]L[dA][hCha])), 0.015 nM.
Under `CC(=O)N1CCN(c2ccc(C[C@@H]3NC(=O)[C@H](CCC4CCCCC4)NC(=O)[C@@H](C)NC(=O)[C@H](CC(C)C)NC(=O)[C@H](CN)NC(=O)[C@H](Cc4ccc(-c5ccc(C(=O)O)cc5)cc4)NC(=O)CNC(=O)[C@@H](C)N(C)C(=O)[C@H](CC(=O)O)NC(=O)[C@H]([C@@H](C)c4cccc5ccccc45)NC(=O)[C@@H]4C[C@@H](N)CN4C(=O)CNC(=O)[C@H](Cc4ccc(C(=O)O)cc4)NC(=O)[C@H](Cc4c[nH]c5ccccc45)NC3=O)cn2)CC1` [Example 175] (cyclo([X1]W[Phe(4-COOH)]G[Pro(4R-NH2)][1Nal(3S-Me)]D[dNMeA]G[Bip(4'-COOH)][Dap]L[dA][hCha])) stands 0.016 nM; under `CC(=O)N1CCN(c2ccc(C[C@@H]3NC(=O)[C@H](CCc4cncc(C#N)c4)NC(=O)[C@@H](C)NC(=O)[C@H](CC(C)C)NC(=O)[C@H](CCCC(N)=O)NC(=O)[C@H](Cc4ccc(-c5ccc(C(=O)O)cc5)cc4)NC(=O)CNC(=O)[C@@H](C)N(C)C(=O)[C@H](CC(=O)O)NC(=O)[C@H]([C@@H](C)c4cccc5ccccc45)NC(=O)[C@@H]4C[C@@H](N)CN4C(=O)CNC(=O)[C@H](Cc4ccc(C(=O)O)cc4)NC(=O)[C@H](Cc4c[nH]c5ccccc45)NC3=O)cn2)CC1` [Example 176] (cyclo([X1]W[Phe(4-COOH)]G[Pro(4R-NH2)][1Nal(3S-Me)]D[dNMeA]G[Bip(4'-COOH)][Aad](NH2)L[dA][h3Pal(5-CN)])), 0.017 nM; under `CC(=O)N1CCN(c2ccc(C[C@@H]3NC(=O)[C@H](CCC4CCCCC4)NC(=O)[C@@H](C)NC(=O)[C@H](CC(C)C)NC(=O)[C@H](CCCCN)NC(=O)[C@H](Cc4ccc(-c5ccc(C(=O)O)cc5)cc4)NC(=O)CNC(=O)[C@@H](C)N(C)C(=O)[C@H](CC(=O)O)NC(=O)[C@H]([C@@H](C)c4cccc5ccccc45)NC(=O)[C@@H]4C[C@@H](N)CN4C(=O)CNC(=O)[C@H](Cc4ccc(C(=O)O)cc4)NC(=O)[C@H](Cc4c[nH]c5ccccc45)NC3=O)cn2)CC1` [Example 177] (cyclo([X1]W[Phe(4-COOH)]G[Pro(4R-NH2)][1Nal(3S-Me)]D[dNMeA]G[Bip(4'-COOH)]KL[dA][hCha])), 0.013 nM.
`CC(=O)N1CCN(c2ccc(C[C@@H]3NC(=O)[C@H](CCc4cncc(C#N)c4)NC(=O)[C@@H](CC(C)C)NC(=O)[C@H](CC(C)C)NC(=O)[C@H](CCCCN)NC(=O)[C@H](Cc4ccc(-c5ccc(C(=O)O)cc5)cc4)NC(=O)CNC(=O)[C@@H](C)N(C)C(=O)[C@H](CC(=O)O)NC(=O)[C@H]([C@@H](C)c4cccc5ccccc45)NC(=O)[C@@H]4C[C@@H](N)CN4C(=O)CNC(=O)[C@H](Cc4ccc(C(=O)O)cc4)NC(=O)[C@H](Cc4c[nH]c5ccccc45)NC3=O)cn2)CC1` [Example 178] (cyclo([X1]W[Phe(4-COOH)]G[Pro(4R-NH2)][1Nal(3S-Me)]D[dNMeA]G[Bip(4'-COOH)]KL[dL][h3Pal(5-CN)])): the IC50 worked out at 0.019 nM.
Under `CCCC[C@H]1NC(=O)[C@H](CC(C)C)NC(=O)[C@H](CCCCN)NC(=O)[C@H](Cc2ccc(-c3ccc(C(=O)O)cc3)cc2)NC(=O)CNC(=O)[C@@H](C)N(C)C(=O)[C@H](CC(=O)O)NC(=O)[C@H]([C@@H](C)c2cccc3ccccc23)NC(=O)[C@@H]2C[C@@H](N)CN2C(=O)CNC(=O)[C@H](Cc2ccc(C(=O)O)cc2)NC(=O)[C@H](Cc2c[nH]c3ccccc23)NC(=O)[C@H](Cc2ccc(N3CCN(C(C)=O)CC3)nc2)NC(=O)[C@H](CCc2cncc(C#N)c2)NC1=O` [Example 179] (cyclo([X1]W[Phe(4-COOH)]G[Pro(4R-NH2)][1Nal(3S-Me)]D[dNMeA]G[Bip(4'-COOH)]KL[dNle][h3Pal(5-CN)])) stands 0.017 nM.
Under `CCC[C@H]1NC(=O)[C@H](CC(C)C)NC(=O)[C@H](CCCCN)NC(=O)[C@H](Cc2ccc(-c3ccc(C(=O)O)cc3)cc2)NC(=O)CNC(=O)[C@@H](C)N(C)C(=O)[C@H](CC(=O)O)NC(=O)[C@H]([C@@H](C)c2cccc3ccccc23)NC(=O)[C@@H]2C[C@@H](N)CN2C(=O)CNC(=O)[C@H](Cc2ccc(C(=O)O)cc2)NC(=O)[C@H](Cc2c[nH]c3ccccc23)NC(=O)[C@H](Cc2ccc(N3CCN(C(C)=O)CC3)nc2)NC(=O)[C@H](CCc2cncc(C#N)c2)NC1=O` [Example 180] (cyclo([X1]W[Phe(4-COOH)]G[Pro(4R-NH2)][1Nal(3S-Me)]D[dNMeA]G[Bip(4'-COOH)]KL[dNva][h3Pal(5-CN)])) stands 0.021 nM.
In the case of `CC(=O)N1CCN(c2ccc(C[C@@H]3NC(=O)[C@H](CCc4cncc(C#N)c4)NC(=O)[C@@H](C)NC(=O)[C@H](CC(C)(C)C)NC(=O)[C@H](CCCCN)NC(=O)[C@H](Cc4ccc(-c5ccc(C(=O)O)cc5)cc4)NC(=O)CNC(=O)[C@@H](C)N(C)C(=O)[C@H](CC(=O)O)NC(=O)[C@H]([C@@H](C)c4cccc5ccccc45)NC(=O)[C@@H]4C[C@@H](N)CN4C(=O)CNC(=O)[C@H](Cc4ccc(C(=O)O)cc4)NC(=O)[C@H](Cc4c[nH]c5ccccc45)NC3=O)cn2)CC1` [Example 181] (cyclo([X1]W[Phe(4-COOH)]G[Pro(4R-NH2)][1Nal(3S-Me)]D[dNMeA]G[Bip(4'-COOH)]K[tBuAla][dA][h3Pal(5-CN)])) it was 0.015 nM.
As for `CC(=O)N1CCN(c2ccc(C[C@@H]3NC(=O)[C@H](CCC4CCCCC4)NC(=O)[C@@H](C)NC(=O)[C@H](CC(C)C)NC(=O)[C@H](CCCN)NC(=O)[C@H](Cc4ccc(-c5ccc(C(=O)O)cc5)cc4)NC(=O)CNC(=O)[C@@H](C)N(C)C(=O)[C@H](CC(=O)O)NC(=O)[C@H]([C@@H](C)c4cccc5ccccc45)NC(=O)[C@@H]4C[C@@H](N)CN4C(=O)CNC(=O)[C@H](Cc4ccc(C(=O)O)cc4)NC(=O)[C@H](Cc4c[nH]c5ccccc45)NC3=O)cn2)CC1` [Example 182] (cyclo([X1]W[Phe(4-COOH)]G[Pro(4R-NH2)][1Nal(3S-Me)]D[dNMeA]G[Bip(4'-COOH)][Orn]L[dA][hCha])), the IC50 came out at 0.013 nM.
Under `CC(=O)N1CCN(c2ccc(C[C@@H]3NC(=O)[C@H](CCc4cncc(C#N)c4)NC(=O)[C@@H](C)NC(=O)[C@H](CC(C)C)NC(=O)[C@H](CCC(N)=O)NC(=O)[C@H](Cc4ccc(-c5ccc(C(=O)O)cc5)cc4)NC(=O)CNC(=O)[C@@H](C)N(C)C(=O)[C@H](CC(=O)O)NC(=O)[C@H]([C@@H](C)c4cccc5ccccc45)NC(=O)[C@@H]4C[C@@H](N)CN4C(=O)CNC(=O)[C@H](Cc4ccc(C(=O)O)cc4)NC(=O)[C@H](Cc4c[nH]c5ccccc45)NC3=O)cn2)CC1` [Example 183] (cyclo([X1]W[Phe(4-COOH)]G[Pro(4R-NH2)][1Nal(3S-Me)]D[dNMeA]G[Bip(4'-COOH)]QL[dA][h3Pal(5-CN)])) stands 0.013 nM; under `CC(C)C[C@@H]1NC(=O)[C@H](CCCCN)NC(=O)[C@H](Cc2ccc(-c3ccc(C(=O)O)cc3)cc2)NC(=O)CNC(=O)[C@@H](C)N(C)C(=O)[C@H](CC(=O)O)NC(=O)[C@H]([C@@H](C)c2c[nH]c3cccc(F)c23)NC(=O)[C@@H]2C[C@@H](N)CN2C(=O)CNC(=O)[C@H](Cc2ccc(C(=O)O)cc2)NC(=O)[C@H](Cc2c[nH]c3cc(Cl)ccc23)NC(=O)[C@H](Cc2ccc(-c3ccc(C(=O)O)cc3)cc2)NC(=O)[C@H](CCc2ccc(O)cc2)NC(=O)[C@@H](C)NC1=O` [Example 184] (cyclo([Bip(4'-COOH)][Trp(6-Cl)][Phe(4-COOH)]G[Pro(4R-NH2)][Trp(βS-Me,4-F)]D[dNMeA]G[Bip(4'-COOH)]KL[dA][hTyr])), 0.018 nM.
